Source: the supplement of paper PMC13380429

Assays:
[1] = tested on: A549-ACE2 infected with SARS-CoV-2; test: SARS-CoV-2 infection rate relative to DMSO; higher = more infection; settings: 24 h
[2] = tested on: A549-ACE2 infected with SARS-CoV-2; test: cell count relative to DMSO; higher = less toxic; settings: 24 h
Calu-3 [3] = test: relative viability EC50 (midpoint between 100% and the lowest measured viability); higher = less toxic; settings: 72 h
HepG2 [4] = test: as above; settings: 72 h
Caco-2 [5] = test: as above; settings: 72 h
Vero E6 [6] = test: as above; settings: 72 h
U2OS [7] = test: as above; settings: 72 h
[8] = tested on: A549-ACE2 infected with SARS-CoV-2; test: morphology score (similarity to uninfected cells); higher = more like uninfected cells; settings: 24 h
Calu-3 [9] = test: cell viability relative to DMSO; higher = less toxic; settings: 72 h
HepG2 [10] = test: as above; settings: 72 h
Caco-2 [11] = test: as above; settings: 72 h
Vero E6 [12] = test: as above; settings: 72 h
U2OS [13] = test: as above; settings: 72 h
Calu-3 [14] = test: drug sensitivity score (DSS) for viability; higher = more toxic; extreme values may be limits of the assay; settings: 72 h
HepG2 [15] = test: as above; settings: 72 h
Caco-2 [16] = test: as above; settings: 72 h
Vero E6 [17] = test: as above; settings: 72 h
U2OS [18] = test: as above; settings: 72 h
A549-ACE2 [19] = test: drug-induced phospholipidosis relative to tamoxifen; higher = more phospholipidosis
A549-ACE2 [20] = test: phospholipidosis EC50; higher = less potent phospholipidosis inducer

CC(=O)O[C@@H]1C[C@H]2C(C)(C)C(=O)C=C[C@]2(C)[C@H]2CC[C@@]3(C)[C@H](c4ccoc4)OC(=O)[C@H]4O[C@]43[C@@]21C [gedunin]
Settings	SARS-CoV-2 infection rate, [1] [%]	cell count, [2] [%]	cell viability, Caco-2 [11] [%]	cell viability, Calu-3 [9] [%]	cell viability, HepG2 [10] [%]	cell viability, U2OS [13] [%]	cell viability, Vero E6 [12] [%]	morphology score, [8]
1 nM	–	–	97.5	102	105	99.5	101	–
10 nM	–	–	94.6	103	93.8	100	102	–
100 nM	–	–	102	115	103	95.7	102	–
0.3 µM	107	101	–	–	–	–	–	0.03
1000 nM	–	–	103	97.2	94.9	100	94.3	–
3 µM	95	96	–	–	–	–	–	0.18
10 µM	98	108	–	–	–	–	–	0.06
10000 nM	–	–	86.8	102	80.6	95.4	86.6	–
30 µM	85	103	–	–	–	–	–	0.52

Settings	drug sensitivity score	relative viability EC50 [µM]
Caco-2 [5]	–	> 10
Caco-2 [16]	0.1	–
Calu-3 [3]	–	> 10
Calu-3 [14]	0	–
HepG2 [4]	–	> 10
HepG2 [15]	1.2	–
U2OS [7]	–	> 10
U2OS [18]	0	–
Vero E6 [6]	–	> 10
Vero E6 [17]	0.5	–

drug-induced phospholipidosis [%], A549-ACE2 [19]
Settings	0.3 µM	0.833333 µM	3.33333 µM	6.66667 µM	10 µM	30 µM
24 h	2.13	1.52	8.1	16.6	23.3	40.1
48 h	7.32	5.06	10.1	18	24.2	37.8
72 h	7.41	2.35	7.47	17	21.7	40.6

CN1Cc2ccccc2[C@@H]2c3cccc4[nH]cc(c34)C[C@H]21 [CY208-243]
Settings	SARS-CoV-2 infection rate [%]	cell count [%]	cell viability [%]	morphology score	phospholipidosis EC50 [µM]
A549-ACE2 [20], 24 h	–	–	–	–	8.69
A549-ACE2 [20], 48 h	–	–	–	–	27.8
Caco-2 [11], 1 nM	–	–	99.1	–	–
Caco-2 [11], 10 nM	–	–	100	–	–
Caco-2 [11], 100 nM	–	–	94.8	–	–
Caco-2 [11], 1000 nM	–	–	110	–	–
Caco-2 [11], 10000 nM	–	–	82.8	–	–
Calu-3 [9], 1 nM	–	–	92.8	–	–
Calu-3 [9], 10 nM	–	–	99.8	–	–
Calu-3 [9], 100 nM	–	–	93.8	–	–
Calu-3 [9], 1000 nM	–	–	96.5	–	–
Calu-3 [9], 10000 nM	–	–	90.4	–	–
HepG2 [10], 1 nM	–	–	102	–	–
HepG2 [10], 10 nM	–	–	96.9	–	–
HepG2 [10], 100 nM	–	–	92.1	–	–
HepG2 [10], 1000 nM	–	–	99.5	–	–
HepG2 [10], 10000 nM	–	–	59.7	–	–
U2OS [13], 1 nM	–	–	95.7	–	–
U2OS [13], 10 nM	–	–	99.4	–	–
U2OS [13], 100 nM	–	–	97.3	–	–
U2OS [13], 1000 nM	–	–	100	–	–
U2OS [13], 10000 nM	–	–	83.3	–	–
Vero E6 [12], 1 nM	–	–	99	–	–
Vero E6 [12], 10 nM	–	–	92.7	–	–
Vero E6 [12], 100 nM	–	–	97	–	–
Vero E6 [12], 1000 nM	–	–	99.2	–	–
Vero E6 [12], 10000 nM	–	–	83.8	–	–
[1], 0.3 µM	100	–	–	–	–
[1], 3 µM	99	–	–	–	–
[1], 10 µM	87	–	–	–	–
[1], 30 µM	52	–	–	–	–
[2], 0.3 µM	–	97	–	–	–
[2], 3 µM	–	77	–	–	–
[2], 10 µM	–	82	–	–	–
[2], 30 µM	–	80	–	–	–
[8], 0.3 µM	–	–	–	-0.03	–
[8], 3 µM	–	–	–	0.26	–
[8], 10 µM	–	–	–	0.44	–
[8], 30 µM	–	–	–	0.69	–

Settings	drug sensitivity score	relative viability EC50 [µM]
Caco-2 [5]	–	> 10
Caco-2 [16]	0.2	–
Calu-3 [3]	–	> 10
Calu-3 [14]	0	–
HepG2 [15]	2.1	–
U2OS [7]	–	> 10
U2OS [18]	0.3	–
Vero E6 [6]	–	> 10
Vero E6 [17]	0.4	–

drug-induced phospholipidosis [%], A549-ACE2 [19]
Settings	0.3 µM	0.833333 µM	3.33333 µM	6.66667 µM	10 µM	30 µM
24 h	2.51	3.29	14.1	30.7	58.4	88.2
48 h	1.19	3.01	17.4	28.4	77.3	–
72 h	4.71	3.9	–	–	–	–
